In US6066628A, “Non-iron metalloporphyrins and methods of use” (Emory University, priority 1998, dated 2000):
≈ marks a conversion by molar mass, not a printed value. Where “and” joins values, the source holds several entries; their conditions need not be identical. Identical values can stand only once. Like-named read-outs stand apart in the source and are kept apart here.

Columns and labels:
[1] = tested on: Y. enterocolitica; assay: microbe, parasite or virus in culture; format: cell-based
[2] = tested on: S. aureus; format: cell-based, Staphylococcus aureus; details: for MIC: S. aureus IR2419, dark (Table 10); for Minimal inhibitory concentration (MIC): methicillin-resistant S. aureus IR219, Nutrient broth (Table 2); for antibacterial activity: S. aureus
[3] = tested on: M. smegmatis; format: cell-based, Mycobacterium smegmatis; details: for MIC / Minimal inhibitory concentration (MIC): M. smegmatis LR222; for MIC: dark (Table 10); for Minimal inhibitory concentration (MIC): LB + Tween 80 (Table 2); for antibacterial activity: M. smegmatis
[4] = tested on: bacteria; format: cell-based; details: for MICs: porphyrins without Ga ions, all tested bacteria
[5] = tested on: S. aureus; assay: Competition of heme/protoporphyrin IX with Ga-PPIX antibacterial activity; format: cell-based, Staphylococcus aureus; details: for antagonism of Ga-PPIX antibacterial activity: heme 10- to 100-fold molar excess, protoporphyrin IX 100-fold excess
[6] = tested on: M. smegmatis; assay: as above; details: for antagonism of Ga-PPIX antibacterial activity: heme 10- to 100-fold molar excess, protoporphyrin IX 20- and 100-fold excess
[7] = tested on: Y. enterocolitica; assay: as above
[8] = tested on: Y. enterocolitica; assay: Minimal bactericidal concentration; format: cell-based; details: reduces plating efficiency more than 99.9%, minimal exposure to light; for MBC: Yersinia enterocolitica
[9] = tested on: S. aureus; assay: Minimal bactericidal concentration; format: cell-based, Staphylococcus aureus; details: reduces plating efficiency more than 99.9%, minimal exposure to light; for MBC: Staphylococcus aureus
Procedure: Minimal bactericidal concentrations (MBCs) were determined essentially the same way as MICs except that the amount of killing with a particular concentration of porphyrin derivative was determined by plating on solid microbiological media (LB plates or LB+Tween 80). Media were solidified by the incorporation of 1.5% agar (Difco Laboratories). Concentrations of porphyrins that produced 99.9% reduction in bacterial counts were considered bactericidal [Hindler et al. (1994) supra].
MBC were determined by plating bacterial cultures that have been incubate
in the presence of MPs at concentrations higher than MIC. MBC was defined
as a concentration of a particular MP which reduces the plating efficienc
more than 99.9%. Experiments were done with minimal exposure to light
(addition of porphyrins waa done in the presence of artifical light).

[10] = tested on: M. smegmatis; assay: Minimal bactericidal concentration; format: cell-based, Mycobacterium smegmatis; details: reduces plating efficiency more than 99.9%, minimal exposure to light; for MBC: Mycolicibacterium smegmatis
[11] = +1 μg/ml Ga-PPIX, competitor 1 μg/ml
[12] = +1 μg/ml Ga-PPIX, competitor 10 μg/ml
[13] = +1 μg/ml Ga-PPIX, competitor 20 μg/ml
[14] = +1 μg/ml Ga-PPIX, competitor 100 μg/ml
[15] = -1 μg/ml Ga-PPIX (without Ga-PPIX), 1 μg/ml
[16] = -1 μg/ml Ga-PPIX (without Ga-PPIX), 10 μg/ml
[17] = -1 μg/ml Ga-PPIX (without Ga-PPIX), 20 μg/ml
[18] = -1 μg/ml Ga-PPIX (without Ga-PPIX), 100 μg/ml
[19] = Staphylococcus aureus, read-out: MIC
[20] = Mycolicibacterium smegmatis, read-out: MIC
[21] = iron restriction / 2,2'-dipyridyl

`C=Cc1c(C)c2cc3nc(c(CC(=O)O)c4[nH]c(cc5nc(cc1[nH]2)C(C)=C5CC)c(C)c4C(=O)O)[C@@H](CCC(=O)O)[C@@H]3C` [Ce6, chlorin e6, reference compound] was tested, and the MIC [1] was 20 and > 10, the MIC [2] was 20 µg/mL (≈ 33.5 µM) and the MIC [3] was 20 µg/mL (≈ 33.5 µM). For the same compound, the “MICs” value [4] was “very large MICs”.
In the case of `C=CC1=C(C)c2cc3[n-]c(cc4[n-]c(cc5nc(cc1n2)C(C)=C5C=C)c(C)c4CCC(=O)O)c(CCC(=O)O)c3C.[Cu+2]` [Cu-PPIX], the “Minimal inhibitory concentration (MIC)” value [1] is reported as 20, the “Minimal inhibitory concentration (MIC)” value [2] is reported as > 40 µg/mL and the “Minimal inhibitory concentration (MIC)” value [3] is reported as 20 µg/mL.
With `C=CC1=C(C)c2cc3[n-]c(cc4[n-]c(cc5nc(cc1n2)C(C)=C5C=C)c(C)c4CCC(=O)O)c(CCC(=O)O)c3C.[Fe+2]` [Fe-PPIX] the “Minimal inhibitory concentration (MIC)” value [1] was > 40, the “Minimal inhibitory concentration (MIC)” value [2] was > 40 µg/mL and the “Minimal inhibitory concentration (MIC)” value [3] was > 40 µg/mL. The growth [5, 11] was “-”, the growth [5, 12] was “-” and the growth [5, 13] was “-”. The growth [5, 14] was “-”, the growth [5, 15] was “+” and the growth [5, 16] was “+”. The growth [5, 17] was “+”, the growth [5, 18] was “+” and the “antagonism of Ga-PPIX antibacterial activity” value (shortened to “antagonism”) [5] was “did not antagonize”. The “toxic effect on S. aureus” value ([5]; heme dissolved in 20 mM NaOH) was “not observed”, the growth [6, 11] was “-” and the growth [6, 12] was “-”. For the same compound, the growth [6, 13] was “-”, the growth [6, 14] was “-” and the growth [6, 15] was “+”. The growth [6, 16] was “+”, the growth [6, 17] was “+” and the growth [6, 18] was “+”. The “antagonism” value [6] was “did not antagonize”, the growth [7, 11] was “-” and the growth [7, 12] was “+”. The growth [7, 13] was “+”, the growth [7, 14] was “+” and the growth [7, 15] was “+”. For the same compound, the growth [7, 16] was “+”, the growth [7, 17] was “+” and the growth [7, 18] was “+”.
`CCC1=C(C)C2=Cc3c(C)c(CCC(=O)O)c4[n]3[Ga][n]3c(c(C)c(CC)c3=CC3=NC(=C4)C(CCC(=O)O)=C3C)=CC1=N2` [GA-MP-IX] was tested, and the MIC ([1]; in µg/mL) was 2.5 and 5, the MIC [2] was 1.6 µg/mL and the MIC [3] was 0.4 µg/mL. The “Minimal bactericidal concentration (MBC)” value [8] was 5, the “Minimal bactericidal concentration (MBC)” value [9] was > 13 and the “Minimal bactericidal concentration (MBC)” value [10] was 10.
For `CCC1=C(CC)c2cc3[nH]c(cc4nc(cc5[nH]c(cc1n2)c(CC)c5CC)C(CC)=C4CC)c(CC)c3CC.[Ga]` [GA-OEP], the MIC ([1]; in µg/mL) was 20, the MIC [2] was 10 µg/mL and the MIC [3] was 5 µg/mL. The “Minimal bactericidal concentration (MBC)” value [8] was > 20, the “Minimal bactericidal concentration (MBC)” value [9] was 5 and the “Minimal bactericidal concentration (MBC)” value [10] was 10.
In the case of `C1=CC2=NC1=Cc1ccc3[n]1[Ga][n]1c(ccc1=CC1=NC(=C3)C=C1)=C2` [GA-POR], the MIC ([1]; in µg/mL) is reported as 20, the MIC [2] is reported as 50 µg/mL and the MIC [3] is reported as 5 µg/mL.
With `C=CC1=C(C)C2=Cc3c(C=C)c(C)c4[n]3[Gd]([Cl])[n]3c(c(C)c(CCC(=O)O)c3=CC3=NC(=C4)C(C)=C3CCC(=O)O)=CC1=N2` [Gd-PPIX, Gadolinium protoporphyrin IX] the “Minimal bactericidal concentration (MBC)” value [8] was 10.
`CCC1=C(C)c2cc3[nH]c(cc4nc(cc5[nH]c(cc1n2)c(C)c5CCC(=O)O)C(CCC(=O)O)=C4C)c(C)c3CC` [MP-IX, mesoporphyrin IX, reference compound] was tested, and the “antibacterial activity” value [2] was “largely inactive”, the MIC [2, 19] was 20 µg/mL (≈ 35.3 µM) and the “antibacterial activity” value [3] was “largely inactive”. The MIC [3, 20] was > 40 µg/mL, the MBC [8] was > 10 µg/mL and the MBC [9] was > 13 µg/mL. The MBC [10] was > 40 µg/mL.
For `C=CC1=C(C)c2cc3[n-]c(cc4[n-]c(cc5nc(cc1n2)C(C)=C5C=C)c(C)c4CCC(=O)[O-])c(CCC(=O)[O-])c3C.[H+].[H+].[Ni+2]` [Ni-PPIX], the “Minimal inhibitory concentration (MIC)” value [1] was > 40, the “Minimal inhibitory concentration (MIC)” value [2] was > 40 µg/mL and the “Minimal inhibitory concentration (MIC)” value [3] was 20 µg/mL.
`CCC1=C(CC)c2cc3[nH]c(cc4nc(cc5[nH]c(cc1n2)c(CC)c5CC)C(CC)=C4CC)c(CC)c3CC` [OEP, octaethylporphine, reference compound] gave an MIC ([1]; Yersinia enterocolitica) of 5 µg/mL (≈ 9.35 µM), an MIC [2, 19] of 10 µg/mL (≈ 18.7 µM) and an MIC [3, 20] of 10 µg/mL (≈ 18.7 µM). The MBC [8] was 5 µg/mL (≈ 9.35 µM), the “Minimal bactericidal concentration (MBC)” value [9] was 5/10 and the MBC [10] was 10 µg/mL (≈ 18.7 µM).
Work on `C1=Cc2cc3ccc(cc4nc(cc5ccc(cc1n2)[nH]5)C=C4)[nH]3` [POR, porphine, reference compound] yielded an MIC ([1]; Yersinia enterocolitica, read-out: MIC) of 30 µg/mL (≈ 96.7 µM), an MIC ([1]; in µg/mL) of 20 and an MIC [2, 19] of 50 µg/mL (≈ 161 µM). For the same compound, the MIC [3, 20] was > 40 µg/mL and the “MICs” value [4] was “very large MICs”.
In the case of `C=CC1=C(C)c2cc3[nH]c(cc4nc(cc5[nH]c(cc1n2)c(C)c5CCC(=O)O)C(CCC(=O)O)=C4C)c(C)c3C=C` [PPIX, protoporphyrin IX], the MIC [2, 19] is reported as 50 µg/mL (≈ 88.9 µM), the MIC [3, 20] is reported as > 40 µg/mL and the MBC [8] is reported as > 40 µg/mL. The MBC [9] was > 40 µg/mL, the MBC [10] was > 20 µg/mL and the growth [5, 11] was “-”. The growth [5, 12] was “-”, the growth [5, 13] was “-” and the growth [5, 14] was “+”. For the same compound, the growth [5, 15] was “+”, the growth [5, 16] was “+” and the growth [5, 17] was “+”. For the same compound, the growth [5, 18] was “+”, the “antagonism” value [5] was “some antagonizing effect” and the “MICs” value [4] was “very large MICs”. For the same compound, the growth [6, 11] was “-”, the growth [6, 13] was “+” and the growth [6, 14] was “+”. The growth [6, 15] was “+”, the growth [6, 16] was “+” and the growth [6, 17] was “+”. For the same compound, the growth [6, 18] was “+”, the “antagonism” value [6] was “antagonized” and the growth [7, 11] was “-”. For the same compound, the growth [7, 12] was “-”, the growth [7, 13] was “-” and the growth [7, 14] was “-”. The growth [7, 15] was “+”, the growth [7, 16] was “+” and the growth [7, 17] was “+”. The growth [7, 18] was “-” and the “antagonism” value ([7]; Y. enterocolitica fur mutant) was “not able to antagonize”.
For `C=CC1=C(C)c2cc3[n-]c(cc4nc(cc5[n-]c(cc1n2)c(C)c5CCC(=O)O)C(CCC(=O)O)=C4C)c(C)c3C=C.[Pt+2]` [Pt-PPIX, Platinum protoporphyrin IX], the “Minimal inhibitory concentration (MIC)” value [1] was 30, the “Minimal inhibitory concentration (MIC)” value [2] was 40 µg/mL and the “Minimal inhibitory concentration (MIC)” value [3] was 20 µg/mL.
With `O=C(O)CCC1=C(CC(=O)O)c2cc3[nH]c(cc4nc(cc5[nH]c(cc1n2)c(CC(=O)O)c5CCC(=O)O)C(CC(=O)O)=C4CCC(=O)O)c(CC(=O)O)c3CCC(=O)O` [UP-1, uroporphyrin I, reference compound] the “HemR requirement of bacterial sensitivity” value [1] was “did not require expression of HemR”, the MIC ([1]; Yersinia enterocolitica) was 10 µg/mL (≈ 12 µM) and the “antibacterial activity” value [2] was “largely inactive”. For the same compound, the MIC [2, 19] was 20 µg/mL (≈ 24.1 µM), the “antibacterial activity” value [3] was “largely inactive” and the MIC [3, 20] was 20 µg/mL (≈ 24.1 µM). For the same compound, the “Minimal bactericidal concentration (MBC)” value [8] was 5/10, the MBC [9] was 20 µg/mL (≈ 24.1 µM) and the MBC [10] was 10 µg/mL (≈ 12 µM).
For `CC1(C)S[C@@H]2[C@H](NC(=O)[C@H](N)c3ccccc3)C(=O)N2[C@H]1C(=O)O` [ampicillin, reference compound], the “effect of iron restriction medium conditions on MIC” value (from here on “effect … on MIC”) [4, 21] was “not affected”.
For `O=C(N[C@H](CO)[C@H](O)c1ccc([N+](=O)[O-])cc1)C(Cl)Cl` [chloramphenicol, reference compound], the “effect … on MIC” value [4, 21] was “not affected”.
For `CN[C@H](CC(C)C)C(=O)N[C@H]1C(=O)N[C@@H](CC(N)=O)C(=O)N[C@H]2C(=O)N[C@H]3C(=O)N[C@H](C(=O)N[C@H](C(=O)O)c4cc(O)cc(O)c4-c4cc3ccc4O)[C@H](O)c3ccc(c(Cl)c3)Oc3cc2cc(c3O[C@@H]2O[C@H](CO)[C@@H](O)[C@H](O)[C@H]2O[C@H]2C[C@](C)(N)[C@H](O)[C@H](C)O2)Oc2ccc(cc2Cl)[C@H]1O` [vancomycin, reference compound], the “effect … on MIC” value [4] was “not affected”.
Gallium (+3) hematoporphyrin IX was tested, and the “antibacterial activity” value [4] was “active against all microorganisms challenged”.
